Experimental data as given in ChEMBL document CHEMBL4609985, “Superior inhibition of influenza virus hemagglutinin-mediated fusion by indole-substituted spirothiazolidinones” (Bioorg Med Chem, 2020).

How the values were obtained:
[1] = Inhibition of influenza H3N2 A/X-31 hemagglutinin 3 expressed in HeLa cells assessed as polykaryon formation preincubated for 15 mins and further incubated for 15 mins with acidic buffer containing compounds at pH 5.2 by giemsa staining based microscopic analysis; format: cell-based, Influenza A virus (A/X-31(H3N2)); settings: Influenza A virus
Influenza A virus H3N2 [2] = assay: Antiviral activity against Influenza A virus H3N2 A/HK/7/87 infected in MDCK cells assessed as reduction in virus induced cytopathic effect after 4 days by microscopy based method; format: functional, organism-based; settings: A/HK/7/87, MDCK, 96 h
Influenza A virus H3N2 [3] = assay: Antiviral activity against IInfluenza A virus H3N2 A/HK/7/87 infected in MDCK cells after 4 days by MTS assay; format: functional, organism-based; settings: A/HK/7/87, MDCK, 96 h
[4] = Cytotoxicity against MDCK cells assessed as reduction in cell viability after 4 days by MTS assay; format: cell-based, Canis lupus familiaris; settings: dog
[5] = Cytotoxicity against MDCK cells assessed as minimum cytotoxic concentration after 4 days by MTS assay; format: cell-based, Canis lupus familiaris; settings: dog
[6] = Selectivity index, ratio of CC50 for MDCK cells to EC50 for antiviral activity against Influenza H3N2 A/HK/7/87 infected in MDCK cells after 4 days by MTS assay; format: toxicity, cell-based; settings: dog, read-out: Ratio CC50/EC50

Row | Compound | EC50 [1] [µM] | EC50 (Influenza A virus H3N2 [2]) [µM] | EC50 (Influenza A virus H3N2 [3]) [µM] | CC50 at 96 h [4] [µM] | MCC at 96 h [5] [µM] | selectivity ratio at 96 h [6]
1 | CCOC(=O)c1c(CSc2ccccc2)n(C)c2cc(Br)c(O)c(CN(C)C)c12 [UMIFENOVIR] | 40 |  |  |  |  | 
2 | Cc1c(C(=O)NN2C(=O)C(C)SC23CCC(c2ccccc2)CC3)[nH]c2ccc(Cl)cc12 (centres undefined) |  | > 100 | > 100 | 2.3 | 1 | 
3 | Cc1c(C(=O)NN2C(=O)C(C)SC23CCC(C)CC3)[nH]c2ccc(Cl)cc12 (centres undefined) | 2.1 | 0.063 | 0.045 | 2.8 | 0.87 | 62
4 | Cc1c(C(=O)NN2C(=O)CSC23CCC(c2ccccc2)CC3)[nH]c2ccc(Cl)cc12 (centres undefined) |  | > 100 | > 100 | 2.4 | 5 | 
5 | Cc1c(C(=O)NN2C(=O)CSC23CCCC(C)C3)[nH]c2ccc(Cl)cc12 (centres undefined) |  | > 100 | > 100 | > 100 | ≥ 100 | 
6 | Cc1c(C(=O)NN2C(=O)CSC23CCC(C)CC3)[nH]c2ccc(Cl)cc12 (centres undefined) |  | > 100 | > 100 | > 100 | ≥ 100 | 
7 | Cc1c(C(=O)NN2C(=O)CSC23CCC(C(C)(C)C)CC3)[nH]c2ccc(Cl)cc12 (centres undefined) |  | > 100 | > 100 | 2.1 | 0.8 | 
8 | Cc1c(C(=O)NN2C(=O)C(C)SC23CCCCC3)[nH]c2ccc(Cl)cc12 (centres undefined) | 1.3 | 0.085 | 0.063 | 5.8 | ≥ 4 | 92
9 | CCC1CCC2(CC1)SCC(=O)N2NC(=O)c1[nH]c2ccc(Cl)cc2c1C (centres undefined) |  | > 100 | > 100 | 94 | ≥ 4 | 
10 | CC(C)(C)c1cc(O)ccc1O [E319] | 9.9 |  |  |  |  | 
11 | Cc1c(C(=O)NN2C(=O)C(C)SC23CCCC(C)C3)[nH]c2ccc(Cl)cc12 (centres undefined) | 1.4 | 0.031 | 0.023 | 33 | ≥ 4 | 1440
12 | Cc1c(C(=O)NN2C(=O)C(C)SC23CCCCC3C)[nH]c2ccc(Cl)cc12 (centres undefined) |  | > 100 | > 100 | 88 | ≥ 20 | 
13 | Cc1c(C(=O)NN2C(=O)CSC23CCCCC3C)[nH]c2ccc(Cl)cc12 (centres undefined) |  | > 100 | > 100 | > 100 | ≥ 20 | 
14 | NC12CC3CC(CC(C3)C1)C2 [AMANTADINE] |  | 3.8 | 1.2 | > 200 | > 200 | 
15 | Cc1c(C(=O)NN2C(=O)CSC23CCCC3)[nH]c2ccc(Cl)cc12 |  | > 100 | > 100 | > 100 | > 100 | 
16 | Cc1nc2sccn2c1C(=O)NN1C(=O)C(C)SC12CCC(C)CC2 (centres undefined) | 1.1 | 5 | 3.2 | > 100 | ≥ 100 | > 31
17 | Cc1c(C(=O)NN2C(=O)C(C)SC23CCCC3)[nH]c2ccc(Cl)cc12 (centres undefined) |  | > 100 | > 100 | > 100 | > 100 | 
18 | CCCC1CCC2(CC1)SCC(=O)N2NC(=O)c1[nH]c2ccc(Cl)cc2c1C (centres undefined) |  | > 100 | > 100 | 1.3 | 0.8 | 
19 | Cc1c(C(=O)NN2C(=O)C(C)SC23CCC(C(C)(C)C)CC3)[nH]c2ccc(Cl)cc12 (centres undefined) |  | > 100 | > 100 | 0.9 | ≥ 4 | 
20 | CCC1CCC2(CC1)SC(C)C(=O)N2NC(=O)c1[nH]c2ccc(Cl)cc2c1C (centres undefined) | 0.88 | 0.0012 | 0.00077 | 1.5 | 3 | 1950
21 | Cc1c(C(=O)NN2C(=O)CSC23CC(C)CC(C)(C)C3)[nH]c2ccc(Cl)cc12 (centres undefined) |  | > 100 | > 100 | > 100 | > 100 | 
22 | NC(=O)c1ncn([C@@H]2O[C@H](CO)[C@@H](O)[C@H]2O)n1 [RIBAVIRIN] |  | 8.4 | 4.6 | > 100 | ≥ 100 | 
23 | Cc1c(C(=O)NN2C(=O)CSC23CCCCC3)[nH]c2ccc(Cl)cc12 |  | > 100 | > 100 | > 100 | > 100 | 
24 | Cc1c(C(=O)NN2C(=O)C(C)SC23CC(C)CC(C)(C)C3)[nH]c2ccc(Cl)cc12 (centres undefined) |  | > 100 | > 100 | 85 | 20 | 
25 | CCCC1CCC2(CC1)SC(C)C(=O)N2NC(=O)c1[nH]c2ccc(Cl)cc2c1C (centres undefined) |  | > 100 | > 100 | 1.9 | 0.8 | 
